# Patent US4512986A, “Progrestationally active steroids” (priority 1983, dated 1985)
# “And” between values parts separate entries of the source, which are not always exact repeats. Identical values can stand only once. “Also recorded” adds a separate entry of the source.
# Columns and labels:
# estrous cycle of rats = assay: Suppression of estrous cycles in rats; assay type: in vivo, rat; details: sc, 10 days
# Protocol: A control group was treated in parallel with 0.2 ml peanut oil per day. Treatment commenced at metestrus and vaginal smears were taken each morning during the 10-day treatment period and for 16 to 18 days thereafter.
# cycling rats = assay: Blockade of ovulation in rats; assay type: in vivo, rat (Charles River CD); details: for No. Rats Ovulated (of rats treated) / No. of Oviductal Eggs in Rats that Ovulated (X ± S.D.): single sc
# From the text: The treated rats were sacrificed on the morning of expected estrus and eggs, if present, were flushed from the oviducts and counted. | *This assay employs cycling Charles River CD rats. For methods refer to | Beattie, C. W. and A. Corbin, Endocrinology 97, 885, 1975. […] | diestrus. Rats were sacrificed 43 to 44 hr later on the morning of | expected estrus. Eggs, if present, were flushed from oviducts and counted | under a stereomicroscope.
# [1] = tested on: uterine endometrium of estrone-primed immature rabbits; assay: Clauberg assay (progestational activity, McPhail); assay type: in vivo, rabbit (New Zealand White); details: for McPhail Index (0-4) (X ± S.D.): 0 none, 4 maximal
# [2] = target: T1, Cytosol Androgen Receptor of the Castrate Adult Rat Ventral Prostate (Rattus norvegicus, UniProt P15207); assay: Relative binding affinity for androgen receptor (competition with 3H-dihydrotestosterone); design: species or system rat (Charles River CD)
# T1 construct: Several ventral prostate glands pooled for each assay; tissue Charles River (animals, strain CD); host or cells: ventral prostate cytosol of castrated adult male rats
# T1 sequence (P15207 1-902): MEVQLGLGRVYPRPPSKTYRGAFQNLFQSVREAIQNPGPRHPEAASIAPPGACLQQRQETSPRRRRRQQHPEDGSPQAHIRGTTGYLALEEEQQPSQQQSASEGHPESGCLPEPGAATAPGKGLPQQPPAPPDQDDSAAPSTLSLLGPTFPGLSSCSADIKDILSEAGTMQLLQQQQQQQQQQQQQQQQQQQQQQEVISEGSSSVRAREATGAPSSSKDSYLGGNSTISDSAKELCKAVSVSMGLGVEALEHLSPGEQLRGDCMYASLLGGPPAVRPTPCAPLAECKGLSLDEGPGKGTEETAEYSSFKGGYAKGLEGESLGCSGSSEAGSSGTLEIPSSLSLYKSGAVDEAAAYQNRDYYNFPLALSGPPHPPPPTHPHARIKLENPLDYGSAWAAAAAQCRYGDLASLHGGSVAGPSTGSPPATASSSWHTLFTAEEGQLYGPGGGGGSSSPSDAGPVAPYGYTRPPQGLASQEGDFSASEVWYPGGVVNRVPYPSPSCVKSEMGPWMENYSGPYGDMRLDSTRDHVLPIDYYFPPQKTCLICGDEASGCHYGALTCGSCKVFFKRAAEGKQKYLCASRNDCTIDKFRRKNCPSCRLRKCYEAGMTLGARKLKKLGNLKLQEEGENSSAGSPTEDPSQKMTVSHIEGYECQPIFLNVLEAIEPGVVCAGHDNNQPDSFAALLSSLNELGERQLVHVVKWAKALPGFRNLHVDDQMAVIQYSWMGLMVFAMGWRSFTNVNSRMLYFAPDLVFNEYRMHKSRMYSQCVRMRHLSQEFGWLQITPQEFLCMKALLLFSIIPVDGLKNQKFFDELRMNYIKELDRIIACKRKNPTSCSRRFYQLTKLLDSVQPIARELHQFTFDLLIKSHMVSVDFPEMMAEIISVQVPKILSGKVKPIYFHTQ
# Protocol: The specific conditions, reagents, etc. used to derive the data from Table 2 are as follows:
# Animal Species. Adult male rat (Charles River CD).
# Pretreatment. Castration 17-24 hour prior to sacrifice.
# Tissue. Ventral prostate. Amount of tissue: 0.4 g/rat. Several ventral prostate glands pooled for each assay.
# Buffer. 0.05M Tris HCl, 0.05M Trisbase; 1 mM EDTA; 0.15 mM Dithiothreitol.
# Homogenization. Three five-second bursts with 30 second cooling periods between bursts using Brinkman Polytron Pt. 10 (3.5 setting).
# Temperature. 0°-4° C. all steps.
# Centrifugation. 45,000 rpm for 1 hr, 50 Ti rotor, Beckman L8-80 ultracentrifuge.
# Radiolabel. 1,2-^3 H-Dihydrotesterone-25,00 cpm/0.1 ml.
# Amounts of Addition. 0.1 ml cytosol, 0.1 ml ^3 H-dihydrotestosterone, 0.1 ml test compound, 0.3 ml buffer.
# Incubation. 16-18 hours at 0°-4° C.
# Concentrations. 1×10^-10 M to 1×10^-5 (7 concentrations).
# Method. Charcoal adsorption method used to remove unbound radioactivity. Five-tenths ml dextran-coated charcoal (0.5% Norit A and 0.05% dextran T-70) added to all except total radioactivity tubes (0.5 ml buffer added), tubes vortexed […], allowed to sit 10 min and centrifuged 10 min at 2000 rpm in Beckman TJ-6 centrifuge at 0°-4° C.
smiles,measurement,setting,value
"C#C[C@]1(C(C)=O)CC[C@H]2[C@@H]3CCC4=CC(=O)CC[C@]4(C)[C@H]3CC[C@@]21C [17α-Ethynylprogesterone, 17α-ethynylprogesterone]","estrous cycle during treatment, in words",estrous cycle of rats; 50 μg/day,continued regular four-day cycles during treatment
same,"estrous cycle during treatment, in words",estrous cycle of rats; 100 μg/day,"estrous cycles were disrupted; also recorded: some degree of follicular development occurred, but that ovulation was inhibited during treatment"
same,"estrous cycle during treatment, in words",estrous cycle of rats; 250 μg/day,estrous cycles were disrupted
same,"estrous cycle during treatment, in words",estrous cycle of rats; 500 μg/day,estrous cycles were disrupted; also recorded: follicular development and ovulation were effectively suppressed
same,"ovulation, in words","cycling rats; 500 μg progesterone, 100, 250 or 500 μg 17α-ethynylprogesterone",ovulation was blocked in most rats
same,"ovulation, in words","cycling rats; 100 or 250 μg progesterone, 50 μg 17α-ethynylprogesterone",ovulated in a normal fashion
same,"potency in blocking ovulation relative to (±)-norgestrel, in words",cycling rats; comparison with literature,equipotent with (±)-norgestrel
same,"potency in blocking ovulation relative to progesterone, in words",cycling rats; sc,about five times as potent as progesterone
same,No. Rats Ovulated (of rats treated),cycling rats; 50 μg/rat,4/5
same,No. of Oviductal Eggs in Rats that Ovulated (X ± S.D.),cycling rats; 50 μg/rat,10.5 ± 2.1
same,No. Rats Ovulated (of rats treated),cycling rats; 100 μg/rat,1/5
same,No. of Oviductal Eggs in Rats that Ovulated (X ± S.D.),cycling rats; 100 μg/rat,3.0
same,No. Rats Ovulated (of rats treated),cycling rats; 250 μg/rat,1/5
same,No. of Oviductal Eggs in Rats that Ovulated (X ± S.D.),cycling rats; 250 μg/rat,6.0
same,No. Rats Ovulated (of rats treated),cycling rats; 500 μg/rat,0/5
same,No. of Oviductal Eggs in Rats that Ovulated (X ± S.D.),cycling rats; 500 μg/rat,0.0
same,"progestational potency relative to subcutaneous progesterone, in words","[1]; compound given orally, progesterone sc",progestational activity equivalent to subcutaneous progesterone
same,progestational potency relative to progesterone (sc),[1]; compound given sc,13 times
same,Uterine Weight (X ± S.D.),"[1]; oral, 10 μg/rabbit daily",0.94 ± 0.09 g
same,McPhail Index (0-4) (X ± S.D.),"[1]; oral, 10 μg/rabbit daily",0.08 ± 0.11
same,Uterine Weight (X ± S.D.),"[1]; oral, 20 μg/rabbit daily",0.98 ± 0.18 g
same,McPhail Index (0-4) (X ± S.D.),"[1]; oral, 20 μg/rabbit daily",0.04 ± 0.06
same,Uterine Weight (X ± S.D.),"[1]; oral, 50 μg/rabbit daily",0.86 ± 0.02 g
same,McPhail Index (0-4) (X ± S.D.),"[1]; oral, 50 μg/rabbit daily",0.00 ± 0.00
same,Uterine Weight (X ± S.D.),"[1]; oral, 100 μg/rabbit daily",1.79 ± 0.63 g and 1.13 ± 0.24 g
same,"progestational response, in words","[1]; oral, 100 μg/rabbit/day",inactive; also recorded: near the oral threshold dose
same,Uterine Weight (X ± S.D.),"[1]; oral, 200 μg/rabbit daily",1.67 ± 0.33 g
same,McPhail Index (0-4) (X ± S.D.),"[1]; oral, 200 μg/rabbit daily",1.40 ± 1.50
same,Uterine Weight (X ± S.D.),"[1]; oral, 400 μg/rabbit daily",1.70 ± 0.50 g
same,McPhail Index (0-4) (X ± S.D.),"[1]; oral, 400 μg/rabbit daily",1.80 ± 1.70
same,"progestational response, in words","[1]; oral, 200 and 400 μg/rabbit/day",partial progestational responses
same,Uterine Weight (X ± S.D.),"[1]; sc, 2.5 μg/rabbit daily",0.90 ± 0.06 g
same,McPhail Index (0-4) (X ± S.D.),"[1]; sc, 2.5 μg/rabbit daily",0.17 ± 0.23
same,"progestational response, in words","[1]; sc, 2.5 μg/rabbit/day",inactive
same,Uterine Weight (X ± S.D.),"[1]; sc, 5 μg/rabbit daily",1.63 ± 0.45 g
same,McPhail Index (0-4) (X ± S.D.),"[1]; sc, 5 μg/rabbit daily",1.50 ± 0.54
same,"progestational response, in words","[1]; sc, 5 μg/rabbit/day",partial progestational response
same,Uterine Weight (X ± S.D.),"[1]; sc, 10 μg/rabbit daily",3.23 ± 0.83 g
same,McPhail Index (0-4) (X ± S.D.),"[1]; sc, 10 μg/rabbit daily",3.83 ± 0.12
same,Uterine Weight (X ± S.D.),"[1]; sc, 20 μg/rabbit daily",4.41 ± 0.33 g
same,McPhail Index (0-4) (X ± S.D.),"[1]; sc, 20 μg/rabbit daily",4.00 ± 0.00
same,Uterine Weight (X ± S.D.),"[1]; sc, 50 μg/rabbit daily",5.54 ± 0.18 g
same,McPhail Index (0-4) (X ± S.D.),"[1]; sc, 50 μg/rabbit daily",4.0 ± 0.00
same,Uterine Weight (X ± S.D.),"[1]; sc, 100 μg/rabbit daily",4.19 ± 0.22 g
same,McPhail Index (0-4) (X ± S.D.),"[1]; sc, 100 μg/rabbit daily",4.0 ± 0.00
same,Uterine Weight (X ± S.D.),"[1]; sc, 200 μg/rabbit daily",4.99 ± 0.89 g
same,McPhail Index (0-4) (X ± S.D.),"[1]; sc, 200 μg/rabbit daily",4.0 ± 0.00
same,Uterine Weight (X ± S.D.),"[1]; sc, 400 μg/rabbit daily",5.90 ± 1.75 g
same,McPhail Index (0-4) (X ± S.D.),"[1]; sc, 400 μg/rabbit daily",4.0 ± 0.00
same,"progestational response, in words","[1]; sc, 10 and 20 μg/rabbit/day",maximal progestational responses
same,"progestational response, in words","[1]; sc, 50, 100, 200 and 400 μg/rabbit/day",full progestational responses
same,RBA,"[2]; 16-18 hours at 0°-4° C., 5α-dihydrotestosterone = 100",0.09%
same,"androgen receptor binding affinity / androgenicity, in words",[2]; male rat androgenic receptors,extremely low binding affinity for male rat androgenic receptors
